PubChem BioAssay (NCI)
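Values below derive from 48-hour exposures of cells grown in 96-well plates, with endpoints linearly interpolated between the two concentrations bracketing the appropriate inhibition level. At the GI50, growth is halved. Definition used: TGI = concentration required for complete inhibition of growth.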

Tests used:
Assay in all cases: inhibition of tumour cell growth, NCI panel, 48 h
HL-60(TB) leukemia = tested on: HL-60(TB) leukemia
CCRF-CEM leukemia = tested on: CCRF-CEM leukemia
IGROV1 ovarian = tested on: IGROV1 ovarian
COLO 205 colon = tested on: COLO 205 colon
UACC-62 melanoma = tested on: UACC-62 melanoma
HOP-92 NSCLC = tested on: HOP-92 NSCLC
ACHN renal = tested on: ACHN renal
RXF 393 renal = tested on: RXF 393 renal
NCI-H226 lung = tested on: NCI-H226 lung
SK-MEL-28 melanoma = tested on: SK-MEL-28 melanoma
SNB-19 CNS = tested on: SNB-19 CNS
SF-268 CNS = tested on: SF-268 CNS
OVCAR-8 ovarian = tested on: OVCAR-8 ovarian
RPMI-8226 leukemia = tested on: RPMI-8226 leukemia
MCF7 breast = tested on: MCF7 breast
CAKI-1 renal = tested on: CAKI-1 renal
786-0 renal = tested on: 786-0 renal
EKVX NSCLC = tested on: EKVX NSCLC
SF-295 CNS = tested on: SF-295 CNS
A549 NSCLC = tested on: A549 NSCLC
SK-MEL-2 melanoma = tested on: SK-MEL-2 melanoma
MOLT-4 leukemia = tested on: MOLT-4 leukemia
K-562 leukemia = tested on: K-562 leukemia
T-47D breast = tested on: T-47D breast
HS 578T breast = tested on: HS 578T breast
NCI-H23 lung = tested on: NCI-H23 lung
U251 CNS = tested on: U251 CNS
OVCAR-4 ovarian = tested on: OVCAR-4 ovarian
SNB-75 CNS = tested on: SNB-75 CNS
UO-31 renal = tested on: UO-31 renal
HCC-2998 colon = tested on: HCC-2998 colon
NCI-H522 lung = tested on: NCI-H522 lung
PC-3 prostate = tested on: PC-3 prostate
DU-145 prostate = tested on: DU-145 prostate
SR leukemia = tested on: SR leukemia
KM12 colon = tested on: KM12 colon
HCT-116 colon = tested on: HCT-116 colon
MALME-3M melanoma = tested on: MALME-3M melanoma
SN12C renal = tested on: SN12C renal
MDA-MB-231 breast = tested on: MDA-MB-231 breast
HT29 colon = tested on: HT29 colon
SF-539 CNS = tested on: SF-539 CNS
SK-MEL-5 melanoma = tested on: SK-MEL-5 melanoma
HOP-62 NSCLC = tested on: HOP-62 NSCLC
NCI/ADR-RES ovarian = tested on: NCI/ADR-RES ovarian
A498 renal = tested on: A498 renal
UACC-257 melanoma = tested on: UACC-257 melanoma
M14 melanoma = tested on: M14 melanoma
HCT-15 colon = tested on: HCT-15 colon
BT-549 breast = tested on: BT-549 breast
MDA-MB-435 = tested on: MDA-MB-435
SK-OV-3 ovarian = tested on: SK-OV-3 ovarian
LOX IMVI melanoma = tested on: LOX IMVI melanoma
NCI-H460 lung = tested on: NCI-H460 lung
OVCAR-5 ovarian = tested on: OVCAR-5 ovarian
SW-620 colon = tested on: SW-620 colon
TK-10 renal = tested on: TK-10 renal

COC(=O)C[Se]C(=O)Cc1c(C)n(C(=O)c2ccc(Cl)cc2)c2ccc(OC)cc12
GI50 (HL-60(TB) leukemia): 2.9 µM
TGI (HL-60(TB) leukemia): 19.7 µM
GI50 (CCRF-CEM leukemia): 3.04 µM
TGI (CCRF-CEM leukemia): 16.8 µM
GI50 (IGROV1 ovarian): 2.1 µM
TGI (IGROV1 ovarian): 4.91 µM
GI50 (COLO 205 colon): 1.83 µM
TGI (COLO 205 colon): 4.4 µM
GI50 (UACC-62 melanoma): 2.85 µM
TGI (UACC-62 melanoma): 14 µM
GI50 (HOP-92 NSCLC): 1.98 µM
TGI (HOP-92 NSCLC): 4.27 µM
GI50 (ACHN renal): 3.36 µM
TGI (ACHN renal): 10.2 µM
GI50 (RXF 393 renal): 1.73 µM
TGI (RXF 393 renal): 5.28 µM
GI50 (NCI-H226 lung): 2.03 µM
TGI (NCI-H226 lung): 6.53 µM
GI50 (SK-MEL-28 melanoma): 3.26 µM
TGI (SK-MEL-28 melanoma): 12 µM
GI50 (SNB-19 CNS): 3.32 µM
TGI (SNB-19 CNS): 12.4 µM
GI50 (SF-268 CNS): 3.18 µM
TGI (SF-268 CNS): 12.3 µM
GI50 (OVCAR-8 ovarian): 2.27 µM
TGI (OVCAR-8 ovarian): 6.22 µM
GI50 (RPMI-8226 leukemia): 3.36 µM
TGI (RPMI-8226 leukemia): 22.9 µM
GI50 (MCF7 breast): 2.57 µM
TGI (MCF7 breast): 11.3 µM
GI50 (CAKI-1 renal): 2.63 µM
TGI (CAKI-1 renal): 6.85 µM
GI50 (786-0 renal): 2.64 µM
TGI (786-0 renal): 6.58 µM
GI50 (EKVX NSCLC): 1.71 µM
TGI (EKVX NSCLC): 4.26 µM
GI50 (SF-295 CNS): 2.21 µM
TGI (SF-295 CNS): 4.92 µM
GI50 (A549 NSCLC): 1.96 µM
TGI (A549 NSCLC): 4.63 µM
GI50 (SK-MEL-2 melanoma): 2.44 µM
TGI (SK-MEL-2 melanoma): 7.79 µM
GI50 (MOLT-4 leukemia): 5.29 µM
TGI (MOLT-4 leukemia): 90.1 µM
GI50 (K-562 leukemia): 5.3 µM
TGI (K-562 leukemia): > 100 µM
GI50 (T-47D breast): 7.32 µM
TGI (T-47D breast): 38 µM
GI50 (HS 578T breast): 2.33 µM
TGI (HS 578T breast): 8.84 µM
GI50 (NCI-H23 lung): 2.41 µM
TGI (NCI-H23 lung): 6.41 µM
GI50 (U251 CNS): 2.38 µM
TGI (U251 CNS): 5.8 µM
GI50 (OVCAR-4 ovarian): 2.27 µM
TGI (OVCAR-4 ovarian): 8.1 µM
GI50 (SNB-75 CNS): 1.8 µM
TGI (SNB-75 CNS): 4.17 µM
GI50 (UO-31 renal): 1.52 µM
TGI (UO-31 renal): 8.03 µM
GI50 (HCC-2998 colon): 4.96 µM
TGI (HCC-2998 colon): 16.9 µM
GI50 (NCI-H522 lung): 9.61 µM
TGI (NCI-H522 lung): 28.8 µM
GI50 (PC-3 prostate): 3.91 µM
TGI (PC-3 prostate): 15.5 µM
GI50 (DU-145 prostate): 2.72 µM
TGI (DU-145 prostate): 8.01 µM
GI50 (SR leukemia): 3.74 µM
TGI (SR leukemia): > 100 µM
GI50 (KM12 colon): 3.06 µM
TGI (KM12 colon): 12.6 µM
GI50 (HCT-116 colon): 1.8 µM
TGI (HCT-116 colon): 4.21 µM
GI50 (MALME-3M melanoma): 1.81 µM
TGI (MALME-3M melanoma): 5.31 µM
GI50 (SN12C renal): 3.09 µM
TGI (SN12C renal): 10.9 µM
GI50 (MDA-MB-231 breast): 2.27 µM
TGI (MDA-MB-231 breast): 5.89 µM
GI50 (HT29 colon): 2.84 µM
TGI (HT29 colon): 8.17 µM
GI50 (SF-539 CNS): 2.7 µM
TGI (SF-539 CNS): 7.69 µM
GI50 (SK-MEL-5 melanoma): 1.83 µM
TGI (SK-MEL-5 melanoma): 3.42 µM
GI50 (HOP-62 NSCLC): 1.74 µM
TGI (HOP-62 NSCLC): 4.14 µM
GI50 (NCI/ADR-RES ovarian): 2.41 µM
TGI (NCI/ADR-RES ovarian): 6.92 µM
GI50 (A498 renal): 2.43 µM
TGI (A498 renal): 6.36 µM
GI50 (UACC-257 melanoma): 2.17 µM
TGI (UACC-257 melanoma): 7.37 µM
GI50 (M14 melanoma): 1.64 µM
TGI (M14 melanoma): 4.91 µM
GI50 (HCT-15 colon): 2.2 µM
TGI (HCT-15 colon): 6.03 µM
GI50 (BT-549 breast): 1.91 µM
TGI (BT-549 breast): 4.21 µM
GI50 (MDA-MB-435): 1.75 µM
TGI (MDA-MB-435): 3.43 µM
GI50 (SK-OV-3 ovarian): 5.57 µM
TGI (SK-OV-3 ovarian): 19.2 µM
GI50 (LOX IMVI melanoma): 1.81 µM
TGI (LOX IMVI melanoma): 3.79 µM
GI50 (NCI-H460 lung): 2.62 µM
TGI (NCI-H460 lung): 8.34 µM
GI50 (OVCAR-5 ovarian): 2.21 µM
TGI (OVCAR-5 ovarian): 6 µM
GI50 (SW-620 colon): 2.03 µM
TGI (SW-620 colon): 4.39 µM
GI50 (TK-10 renal): 3.72 µM
TGI (TK-10 renal): 18.2 µM
